Publication PMC4138103 (PLoS ONE, 2014)

Tested on: Sprague-Dawley rats
Assay: Hematology
Assay type: in vivo, Rattus norvegicus
Parameters: key to Dose response, MCH / Dose response, MCHC / Dose response, PLT / Dose response, MCV: D: significant dose response (for results, see Table 2); T: significant trend; HCT, Hematocrit: unit not given here
Details: for RBC, Red cell count / HCT, Hematocrit / Basophils / Eosinophils / HB, Hemoglobin / Lymphocytes / MCH, Mean corpuscular hemoglobin / MCHC, Mean corpuscular hemoglobin concentration / MCV, Mean corpuscular volume / MPV, Mean platelet volume / Monocytes / Neutrophils / PDW, Platelet distribution width / PLT, Platelet count / WBC, Leukocyte total count: group mean; for Hematocrit, CED / Hematocrit, CED-L / Hemoglobin, CED / Hemoglobin, CED-L / Red blood cell count, CED / Red blood cell count, CED-L / Red cell distribution width - SD, CED / Red cell distribution width - SD, CED-L: total dose based
Description: Basic blood picture analysis was carried out using Advia 120 analyzer (Bayer, later Siemens Diagnostic Division, Dublin, Ireland). This analysis includes red cell count (RBC), hemoglobin (HB), hematocrit (HCT), platelet count (PLT), leukocyte total count (WBC) and differential count as well as the calculated red cell and platelet parameters mean corpuscular volume (MCV), mean corpuscular hemoglobin (MCH), mean corpuscular hemoglobin concentration (MCHC), red cell distribution width - standard deviation (RDW-SD), platelet distribution width (PDW) and mean platelet volume (MPV). Blood cell counting is based on isovolumetric sphering and fixing the cells, stains and light scattering. Visual leukocyte differential counting was done after May-Grünwald-Giemsa staining.
Data were also analyzed using the BMD method, which is based on dose-response modeling of the full data set using a nested family of exponential and Hill models. The analyses were done on data of males and females combined, using sex as a covariate. […] In that case, different Critical Effect Doses (CEDs) and CEDs at the lowest bound of the confidence interval (CED-L) were generated for each sex. If no difference between sexes is detected, a CED and CED-Ls for the combined data is generated. However, this was also done if the curve fits are close, and separate analyses for males and females were then performed manually. CEDs and CED-Ls were calculated at the predefined Critical Effect Size (CES) of 5% (EFSA standard) or 10%.

[1] = females, total doses 0-1700 mg/kg bw
[2] = males, total dose 3 mg/kg bw, N=5
[3] = males, total dose 10 mg/kg bw, N=5
[4] = males, total dose 30 mg/kg bw, N=5
[5] = males, total dose 100 mg/kg bw, N=5

How did the “RBC, Red cell count” value (females, total dose 1700 mg/kg bw, N=5, p<0.001 vs. control) turn out when Clc1cc(Cl)c(-c2cc(Cl)c(Cl)c(Cl)c2Cl)cc1Cl [PCB 180, 2,2′,3′,4,4′,5,5′-heptachlorobiphenyl] was run?
Its value is 6.43e+12 L⁻¹.

What about the “HCT, Hematocrit” value (females, total dose 1700 mg/kg bw, N=5, p<0.01 vs. control) of the same molecule?
Its value is 0.41.

What about the “Dose response, HB” value [1] of the same molecule?
Its value is “D, T”.

And the “Dose response, HCT” value [1]?
The value was “D, T”.

And the “Dose response, MCV” value [1]?
The value was “T”.

And the “Dose response, RBC” value [1]?
Its value is “D, T”.

What about the “Hematocrit, CED” value (females, CES 5%) of the same molecule?
Its value is 832 mg/kg bw.

And the “Hematocrit, CED-L” value (females, CES 5%)?
The value was 646 mg/kg bw.

What about the “Hemoglobin, CED” value (females, CES 5%) of the same molecule?
Its value is 739 mg/kg bw.

And the “Hemoglobin, CED-L” value (females, CES 5%)?
Its value is 600 mg/kg bw.

And the “Red blood cell count, CED” value (females, CES 5%)?
Its value is 638 mg/kg bw.

What about the “Red blood cell count, CED-L” value (females, CES 5%) of the same molecule?
The value was 514 mg/kg bw.

And the “Red cell distribution width - SD, CED” value (females, CES 5%)?
The value was 1400 mg/kg bw.

What about the “Red cell distribution width - SD, CED-L” value (females, CES 5%) of the same molecule?
Its value is 1093 mg/kg bw.

And the “Hematocrit, CED” value (females, CES 10%)?
Its value is 1710 mg/kg bw.

And the “Hematocrit, CED-L” value (females, CES 10%)?
The value was 1327 mg/kg bw.

What about the “Hemoglobin, CED” value (females, CES 10%) of the same molecule?
The value was 1520 mg/kg bw.

What about the “Hemoglobin, CED-L” value (females, CES 10%) of the same molecule?
The value was 1233 mg/kg bw.

What about the “Red blood cell count, CED” value (females, CES 10%) of the same molecule?
Its value is 1310 mg/kg bw.

What about the “Red blood cell count, CED-L” value (females, CES 10%) of the same molecule?
The value was 1056 mg/kg bw.

And the “Red cell distribution width - SD, CED” value (females, CES 10%)?
The value was 1650 mg/kg bw.

What about the “Red cell distribution width - SD, CED-L” value (females, CES 10%) of the same molecule?
Its value is 1498 mg/kg bw.

And the “RBC, CED” value (females, adipose tissue concentration based)?
The value was 4170 µg/g lipid.

And the Basophils [2]?
The Basophils was 0.0%.

And the Eosinophils [2]?
Its Eosinophils is 0.6%.

What about the “HB, Hemoglobin” value [2] of the same molecule?
The value was 179 g/L.

What about the “HCT, Hematocrit” value [2] of the same molecule?
The value was 0.52.

And the Lymphocytes [2]?
The Lymphocytes was 87%.

What about the “MCH, Mean corpuscular hemoglobin” value [2] of the same molecule?
Its value is 21.9 pg.

And the “MCHC, Mean corpuscular hemoglobin concentration” value [2]?
Its value is 346 g/L.

And the “MCV, Mean corpuscular volume” value [2]?
Its value is 63.4 fL.

And the “MPV, Mean platelet volume” value [2]?
The value was 7.16 fL.

What about the Monocytes [2] of the same molecule?
Its Monocytes is 4.4%.

And the Neutrophils [2]?
The Neutrophils was 8.0%.

What about the “PDW, Platelet distribution width” value [2] of the same molecule?
Its value is 7.66 fL.

And the “PLT, Platelet count” value [2]?
The value was 8.36e+11 L⁻¹.

And the “RBC, Red cell count” value [2]?
The value was 8.18e+12 L⁻¹.

And the “WBC, Leukocyte total count” value [2]?
The value was 1.896e+10 L⁻¹.

What about the Basophils [3] of the same molecule?
The Basophils was 0.2%.

And the Eosinophils [3]?
Its Eosinophils is 0.6%.

And the “HB, Hemoglobin” value [3]?
The value was 171 g/L.

And the “HCT, Hematocrit” value [3]?
The value was 0.49.

What about the Lymphocytes [3] of the same molecule?
The Lymphocytes was 84.6%.

And the “MCH, Mean corpuscular hemoglobin” value [3]?
The value was 22.02 pg.

What about the “MCHC, Mean corpuscular hemoglobin concentration” value [3] of the same molecule?
Its value is 350 g/L.

What about the “MCV, Mean corpuscular volume” value [3] of the same molecule?
Its value is 63.0 fL.

What about the “MPV, Mean platelet volume” value [3] of the same molecule?
The value was 6.96 fL.

What about the Monocytes [3] of the same molecule?
Its Monocytes is 4.4%.

What about the Neutrophils [3] of the same molecule?
Its Neutrophils is 10.2%.

And the “PDW, Platelet distribution width” value [3]?
Its value is 7.54 fL.

What about the “PLT, Platelet count” value [3] of the same molecule?
The value was 8.27e+11 L⁻¹.

What about the “RBC, Red cell count” value [3] of the same molecule?
The value was 7.79e+12 L⁻¹.

What about the “WBC, Leukocyte total count” value [3] of the same molecule?
Its value is 1.674e+10 L⁻¹.

And the Basophils [4]?
The Basophils was 0.0%.

And the Eosinophils [4]?
Its Eosinophils is 0.6%.

What about the “HB, Hemoglobin” value [4] of the same molecule?
Its value is 170 g/L.

What about the “HCT, Hematocrit” value [4] of the same molecule?
Its value is 0.49.

And the Lymphocytes [4]?
Its Lymphocytes is 87.8%.

And the “MCH, Mean corpuscular hemoglobin” value [4]?
The value was 22 pg.

What about the “MCHC, Mean corpuscular hemoglobin concentration” value [4] of the same molecule?
The value was 349 g/L.

And the “MCV, Mean corpuscular volume” value [4]?
The value was 63.1 fL.

What about the “MPV, Mean platelet volume” value [4] of the same molecule?
The value was 6.92 fL.

What about the Monocytes [4] of the same molecule?
Its Monocytes is 4.2%.

And the Neutrophils [4]?
Its Neutrophils is 7.4%.

And the “PDW, Platelet distribution width” value [4]?
The value was 7.44 fL.

And the “PLT, Platelet count” value [4]?
Its value is 8.6e+11 L⁻¹.

And the “RBC, Red cell count” value [4]?
Its value is 7.73e+12 L⁻¹.

What about the “WBC, Leukocyte total count” value [4] of the same molecule?
Its value is 1.7e+10 L⁻¹.

What about the Basophils [5] of the same molecule?
Its Basophils is 0.0%.

And the Eosinophils [5]?
The Eosinophils was 0.6%.

What about the “HB, Hemoglobin” value [5] of the same molecule?
The value was 170 g/L.

What about the “HCT, Hematocrit” value [5] of the same molecule?
Its value is 0.48.

What about the Lymphocytes [5] of the same molecule?
Its Lymphocytes is 87.8%.
